Marks after values point to notes of the source that are not given here.
Legend:
Format in all cases: in vivo
[1] = system: 'M202' rice (Japonica rice variety from California, USA); test: Greenhouse in-water application, transplanted paddy rice (small pots), crop injury
Description: (§1) Weed seeds of the desired test plant species were planted in puddled soil (mud) prepared by mixing a non-sterilized mineral soil (approximately 50 percent silt, 26 percent clay, and 24 percent sand, with a pH of about 7.6 and an organic matter content of about 2.9 percent) and water at a 1:1 volumetric ratio. The prepared mud was dispensed in 365 milliliter (mL) aliquots into 16-ounce (oz.) non-perforated plastic pots with a surface area of 86.59 square centimeters (cm^2) leaving a headspace of 3 centimeters (cm) in each pot. Mud was allowed to dry overnight prior to planting or transplanting. Rice seeds were planted in Sun Gro® MetroMix® 360 planting mixture, which typically has a pH of 6.0 to 6.8 and an organic matter content of about 30 percent, in plastic plug trays. Seedlings at the second or third leaf stage of growth were transplanted into 840 mL of mud contained in 32-oz. non-perforated plastic pots with a surface area of 86.59 cm^2 four days prior to herbicide application. The paddy was created by filling the headspace of the pots with 2.5 to 3 cm of water. When required to ensure good germination and healthy plants, a fungicide treatment and/or other chemical or physical treatment was applied. The plants were grown for 4-22 days (d) in a greenhouse with an approximate 14-hour (h) photoperiod which was maintained at about 29° C. during the day and 26° C. during the night. Nutrients were added as Osmocote® (19:6:12, Nitrogen:Phosphorus:Potassium (N:P:K)+minor nutrients) at 2 g per 16 oz. pot and 4 g per 32 oz. pot. Water was added on a regular basis to maintain the paddy flood, and supplemental lighting was provided with overhead metal halide 1000-Watt lamps as necessary. The plants were used for testing when they reached the second or third true leaf stage.
(§2) Triclopyr triethylammonium (as Grandstand® R, 359.5 grams acid equivalent per liter (g ae/L)); fluroxypyr methylheptyl ester (meptyl or MHE, as Starane™, 179.8 g ae/L); 2,4-dichlorophenoxyacetic acid dimethylammonium (2,4-D DMA, as Weedar® 64, 455.4 g ae/L); and penoxsulam (as Grasp® SC, 239.7 grams active ingredient per liter (g ai/L) were used. Measured amounts of formulated compounds were placed in individual 120 mL glass vials and were dissolved in 40 mL of an aqueous mixture containing 1.25% volume per volume (v/v) Agri-Dex® crop oil concentrate. Generally, multiple concentrations were tested utilizing the same stock solution. Applications were made by injecting an appropriate amount of the application solution into the aqueous layer of the paddy. Control plants were treated in the same manner with the solvent blank.
(§3) The treated plants and control plants were placed in a greenhouse as described above and water was added as needed to maintain a paddy flood. After approximately 3 weeks the condition of the test plants, compared with that of the untreated plants, was determined visually and scored on a scale of 0 to 100 percent where 0 corresponds to no injury or growth reduction and 100 corresponds to complete kill.

[2] = system: 'Wells' rice (Medium grain rice variety from Arkansas, USA); test: as above
Description: as §1, §2, §3

[3] = system: ORYSP = Oryza sativa Japonica (transplanted paddy rice); test: Field trial in-water application, crop tolerance
Method: (§4) Field trials were conducted in rice using standard herbicide small plot research methodology. Plot size was 2 square meters (m^2) using 1.6 meter (m) diameter rings placed into the rice paddy soil with capability for flooding to maintain good rice cultural practices and rice growing conditions. There were 3 replicates per treatment. Rice was Japonica type that was hand-transplanted into the saturated soil in the rings as per normal cultural practices. The transplanted rice crop was grown using normal cultural practices for fertilization, watering, flooding and maintenance to ensure good growth of the crop and the weeds under transplanted rice conditions in Taiwan.
(§5) Treatments were applied by mixing the treatments with deionized water just prior to water-injection application by hand to multiple sides in the ring plots. For each 2 m^2 plot, 50 mL deionized water was mixed with the appropriate formulated product amounts to treat 2 m^2 to achieve the desired application rates based on unit area of application (hectare). Ring plot water depth was kept at 3 to 7 cm deep before and after water-injection application.
(§6) The rice and weeds were evaluated at 28 days after application (DAA). Triclopyr triethylammonium (as Garlon® 3 A, 360 g ae/L); fluroxypyr methylheptyl ester (meptyl or MHE, as Starane® Ultra, 333 g ae/L); 2,4-dichlorophenoxyacetic acid dimethylammonium (2,4-D AMINE, 400 g ae/L SL); penoxsulam (as Grasp® SC, 240 g ai/L); and bensulfuron-methyl (as LONDAX® 10% WAY WP) were used.
(§7) The treated and control plots were rated at 28 days after application. Ratings were based on percent (%) visual weed control, where 0 corresponds to no control and 100 corresponds to complete control.

[4] = system: CYPDI = Cyperus difformis (small-flower flatsedge); test: Field trial in-water herbicidal efficacy
Method: as §4, §5, §6, §7

[5] = system: ECHCG = Echinochloa crus-galli (barnyardgrass); test: Field trial in-water herbicidal efficacy
Method: as §4, §5, §6, §7

[6] = system: LEFCH = Leptochloa chinensis (Chinese sprangletop); test: Field trial in-water herbicidal efficacy
Method: as §4, §5, §6, §7

[7] = system: MOOVA = Monochoria vaginalis (monochoria); test: Field trial in-water herbicidal efficacy
Method: as §4, §5, §6, §7

[8] = system: SCPJU = Schoenoplectus juncoides (Japanese bulrush); test: Field trial in-water herbicidal efficacy
Method: as §4, §5, §6, §7

Compound	Percent (%) Visual Injury Ratings - 20 DAA, M202′ Rice ([1]; 280 g ae/ha in-water) [%]	Percent (%) Visual Injury Ratings - 20 DAA, M202′ Rice ([1]; 560 g ae/ha in-water) [%]	Percent (%) Visual Injury Ratings - 20 DAA, M202′ Rice ([1]; 1120 g ae/ha in-water)	Percent (%) Visual Injury Ratings - 20 DAA, Wells′ Rice ([2]; 280 g ae/ha in-water) [%]	Percent (%) Visual Injury Ratings - 20 DAA, Wells′ Rice ([2]; 560 g ae/ha in-water) [%]	Percent (%) Visual Injury Ratings - 20 DAA, Wells′ Rice ([2]; 1120 g ae/ha in-water) [%]	Percent (%) Visual Injury Ratings - 28 DAA, ORYSP ([3]; 140 g ae/ha in-water 10 DAT) [%]	Percent (%) Visual Injury Ratings - 28 DAA, ORYSP ([3]; 280 g ae/ha in-water 10 DAT) [%]	Percent (%) Visual Injury Ratings - 28 DAA, ORYSP ([3]; 560 g ae/ha in-water 10 DAT) [%]	Percent (%) Visual Injury Ratings - 28 DAA, CYPDI ([4]; 140 g ae/ha in-water 10 DAT) [%]	Percent (%) Visual Injury Ratings - 28 DAA, CYPDI ([4]; 280 g ae/ha in-water 10 DAT) [%]	Percent (%) Visual Injury Ratings - 28 DAA, CYPDI ([4]; 560 g ae/ha in-water 10 DAT) [%]	Percent (%) Visual Injury Ratings - 28 DAA, ECHCG ([5]; 140 g ae/ha in-water 10 DAT) [%]	Percent (%) Visual Injury Ratings - 28 DAA, ECHCG ([5]; 280 g ae/ha in-water 10 DAT) [%]	Percent (%) Visual Injury Ratings - 28 DAA, ECHCG ([5]; 560 g ae/ha in-water 10 DAT) [%]	Percent (%) Visual Injury Ratings - 28 DAA, LEFCH ([6]; 140 g ae/ha in-water 10 DAT) [%]	Percent (%) Visual Injury Ratings - 28 DAA, LEFCH ([6]; 280 g ae/ha in-water 10 DAT) [%]	Percent (%) Visual Injury Ratings - 28 DAA, LEFCH ([6]; 560 g ae/ha in-water 10 DAT) [%]	Percent (%) Visual Injury Ratings - 28 DAA, MOOVA ([7]; 140 g ae/ha in-water 10 DAT) [%]	Percent (%) Visual Injury Ratings - 28 DAA, MOOVA ([7]; 280 g ae/ha in-water 10 DAT) [%]	other results
O=C(O)COc1ccc(Cl)cc1Cl [2,4-D DMA (Weedar ® 64), dimethylammonium 2-(2,4-dichlorophenoxy)acetate]	0	0	10* %	0	0	0	0	0	0	0.0	94.3	100.0	0.0	0.0	0.0	0.0	0.0	0.0	0.0	6.7	Percent (%) Visual Injury Ratings - 28 DAA, MOOVA ([7]; 560 g ae/ha in-water 10 DAT): 93.3%; Percent (%) Visual Injury Ratings - 28 DAA, SCPJU ([8]; 140 g ae/ha in-water 10 DAT): 10.0%; Percent (%) Visual Injury Ratings - 28 DAA, SCPJU ([8]; 280 g ae/ha in-water 10 DAT): 90.0%; Percent (%) Visual Injury Ratings - 28 DAA, SCPJU ([8]; 560 g ae/ha in-water 10 DAT): 100.0%
CCCCCCC(C)OC(=O)COc1nc(F)c(Cl)c(N)c1Cl (stereo not drawn) [Fluroxypyr-meptyl (Starane ® Ultra), 1-methylheptyl 2-[(4-amino-3,5-dichloro-6-fluoro-2-pyridinyl)oxy]acetate]	0	0	35%	0	0	10	0	0	0	95.0	98.7	100.0	0.0	0.0	0.0	0.0	0.0	0.0	0.0	0.0	Percent (%) Visual Injury Ratings - 28 DAA, MOOVA ([7]; 560 g ae/ha in-water 10 DAT): 60.0%; Percent (%) Visual Injury Ratings - 28 DAA, SCPJU ([8]; 140 g ae/ha in-water 10 DAT): 88.3%; Percent (%) Visual Injury Ratings - 28 DAA, SCPJU ([8]; 280 g ae/ha in-water 10 DAT): 98.0%; Percent (%) Visual Injury Ratings - 28 DAA, SCPJU ([8]; 560 g ae/ha in-water 10 DAT): 99.3%
O=C(O)COc1nc(Cl)c(Cl)cc1Cl [Triclopyr triethanolamine (Garlon ® 3A), triethylammonium 2[(3,5,6-trichloro-2-pyridinyl)oxy]acetate]	0	0	20%	0	0	10	0	0	0	0.0	0.0	0.0	0.0	0.0	0.0	0.0	0.0	0.0	0.0	0.0	Percent (%) Visual Injury Ratings - 28 DAA, MOOVA ([7]; 560 g ae/ha in-water 10 DAT): 0.0%; Percent (%) Visual Injury Ratings - 28 DAA, SCPJU ([8]; 140 g ae/ha in-water 10 DAT): 0.0%; Percent (%) Visual Injury Ratings - 28 DAA, SCPJU ([8]; 280 g ae/ha in-water 10 DAT): 0.0%; Percent (%) Visual Injury Ratings - 28 DAA, SCPJU ([8]; 560 g ae/ha in-water 10 DAT): 0.0%
